Results from publication PMC4676410 (Journal of medicinal chemistry, 2015).
Read-outs that look alike come from different tables or passages of the source.

How the values were obtained:
YU2 core gp120 [1] = assay: Competitive SPR: sCD4 binding to immobilized YU2 core gp120; set-up: species or system HIV-1; conditions: NBD-11021 12.5-200 μM
[2] = test system: laboratory-adapted HIV-1 strains; assay: microbe, parasite or virus in culture; format: cell-based
SIVmac186 = assay: Antiviral activity against SIV; format: cell-based; conditions: Table S2
A-MLV = assay: microbe, parasite or virus in culture; format: cell-based; conditions: Murine leukemia virus
SHIVSF162P3 = assay: Antiviral activity against SHIV; format: cell-based; conditions: Table S2
HIV-1IIIB = assay: CD4-dependent CXCR4-tropic HIV-1 cell-cell transmission assay; format: cell-based; conditions: Ghost X4/R5 and H9/HIV-1IIIB
HIV-1ADA = assay: CD4-dependent CCR5-tropic HIV-1 cell-cell transmission assay; format: cell-based; conditions: Ghost X4/R5 and MOLT-4/HIV-1ADA
HIV-2 isolates = assay: Antiviral activity against HIV-2; format: cell-based; conditions: Table S2
[3] = test system: lab-adapted and primary HIV-1 isolates; assay: microbe, parasite or virus in culture; format: cell-based; conditions: Human immunodeficiency virus 1, PBMC, laboratory strain BaL, subtype B, R5
[4] = test system: fusion between MAGI-CCR5 and HL 2/3 cells; assay: HIV-1 cell-cell fusion assay; format: cell-based; conditions: read-out: IC50, cell-cell fusion assay
[5] = test system: HIV-1HXB2 (CXCR4-tropic) pseudovirus; assay: Single-cycle infection assay in U87-CD4-CXCR4 cells; conditions: U87-CD4-CXCR4, HIV-1HXB2
VSV-G = assay: microbe, parasite or virus in culture; format: cell-based; conditions: Human immunodeficiency virus 1
YU2 core gp120 [6] = assay: Competitive SPR: VRC-PG04 binding to immobilized YU2 core gp120; set-up: species or system HIV-1; conditions: at higher ratios of NBD-11021 versus VRC-PG04
[7] = test system: HIV-1ADA (CCR5-tropic) pseudovirus; assay: Single-cycle infection assay in U87-CD4-CCR5 cells
YU2 core gp120 [8] = assay: SPR: binding of YU2 core gp120 to captured mAb 17b in presence of compounds; set-up: species or system HIV-1; conditions: sCD4 15-fold excess, compounds 50-fold excess
[9] = biological target: HIV-1 reverse transcriptase (RT) (Human immunodeficiency virus type 1 group M subtype B, UniProt P12497); assay: HIV-1 reverse transcriptase

Cc1nc(C(NC(=O)c2ccc(-c3ccc(Cl)cc3)[nH]2)C2CCCCN2)sc1CO (mixture of isomers) [NBD-11021, 5-(4-Chlorophenyl)-N-((5-(hydroxymethyl)-4-methylthiazol-2-yl)-(piperidin-2-yl)methyl)-1H-pyrrole-2-carboxamide]
competition with sCD4 for binding to gp120 (in words) (YU2 core gp120 [1]): competes with CD4 to bind to gp120 in a dose-dependent manner
IC50 ([2]; Human immunodeficiency virus 1, MT2, MT-2, HIV-1IIIB): 1.5 ± 0.06 µM
IC50 ([2]; Human immunodeficiency virus 1, MT2, laboratory strain RF, subtype B, MT-2, R5X4): 7.3 ± 0.6 µM
activity against SIVmac186 (in words) (SIVmac186): poor activity
IC50 (A-MLV): 7.5 ± 0.2 µM
activity against SHIVSF162P3 (in words) (SHIVSF162P3): poor activity
inhibition of CXCR4-tropic cell-cell transmission (in words) (HIV-1IIIB): inhibited cell–cell transmission effectively
inhibition of CCR5-tropic cell-cell transmission (in words) (HIV-1ADA): showed inhibition
activity against HIV-2 isolates (in words) (HIV-2 isolates): poor activity
IC50 [3]: 3.7 ± 0.4 µM
IC50 [4]: 9.8 µM
IC50 [5]: 2.4 ± 0.1 µM
IC50 (VSV-G): 10 ± 0.5 µM
competition with VRC-PG04 for binding to gp120 (in words) (YU2 core gp120 [6]): effectively competed with VRC-PG04
IC50 ([7]; Pseudovirus, U87/CD4/CCR5, U87-CD4-CCR5, HIV-1ADA): 1.7 ± 0.2 µM
IC50 ([7]; U87/CD4/CCR5, read-out: IC50 against CCR5- and CXCR4-tropic HIV-1): 1.7 to 2.4 µM
enhancement of mAb 17b binding to YU2 core gp120 (in words) (YU2 core gp120 [8]): no enhancement

Cc1cn([C@H]2C[C@H](N=[N+]=[N-])[C@@H](CO[P@](=O)(O)O[P@](=O)(O)OP(=O)(O)O)O2)c(=O)[nH]c1=O [AZT-TP]
IC50 [9]: 0.008 µM

COc1ccnc2[nH]cc(C(=O)C(=O)N3CCN(C(=O)c4ccccc4)C[C@H]3C)c12 [BMS-378806]
IC50 ([4]; MAGI-CCR5 and HL 2/3 cells): 0.014 µM
